For test [1], the target named is Protein cereblon/Cyclin-dependent kinase 5 (Homo sapiens, UniProt Q00535+Q96SW2). Description: PROTAC activity at CRBN/CDK5 in HEK293 cells assessed as induction of CDK5 degradation incubated for 24 hrs by Western blotting analysis. The class given is cell-based. (Immunoblotting shows a protein as a band on a membrane.)
Test [2] addresses Protein cereblon/Cyclin-dependent kinase 9 (Homo sapiens, UniProt P50750+Q96SW2). Description: PROTAC activity at CRBN/CDK9 in HEK293 cells assessed as induction of CDK9 degradation incubated for 24 hrs by Western blotting analysis. The class given is cell-based.
Test [3] concerns the target Cyclin-dependent kinase 5 (Homo sapiens, UniProt Q00535). Description: Binding affinity to CDK5 (unknown origin) assessed as dissociation constant.
Test [4] has as its target Cyclin-dependent kinase 9 (Homo sapiens, UniProt P50750). Description: Binding affinity to CDK9 (unknown origin) assessed as dissociation constant.
Test [5] addresses Protein cereblon/Cyclin-dependent kinase 2 (Homo sapiens, UniProt P24941+Q96SW2). As to the kind of experiment: PROTAC activity at CRBN/CDK2 in HEK293 cells assessed as induction of CDK2 degradation incubated for 24 hrs by Western blotting analysis. The class given is cell-based.

Sequence of Protein cereblon/Cyclin-dependent kinase 5 (Q00535 whole entry): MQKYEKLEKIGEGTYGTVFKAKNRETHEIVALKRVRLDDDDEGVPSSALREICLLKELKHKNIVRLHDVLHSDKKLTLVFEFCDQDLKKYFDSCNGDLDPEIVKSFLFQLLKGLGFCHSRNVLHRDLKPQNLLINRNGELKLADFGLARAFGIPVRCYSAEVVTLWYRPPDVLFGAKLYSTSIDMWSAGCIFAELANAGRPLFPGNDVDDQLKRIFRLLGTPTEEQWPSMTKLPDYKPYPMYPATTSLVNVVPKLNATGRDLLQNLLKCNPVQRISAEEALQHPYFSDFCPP
Sequence of Protein cereblon/Cyclin-dependent kinase 5 (Q96SW2 whole entry): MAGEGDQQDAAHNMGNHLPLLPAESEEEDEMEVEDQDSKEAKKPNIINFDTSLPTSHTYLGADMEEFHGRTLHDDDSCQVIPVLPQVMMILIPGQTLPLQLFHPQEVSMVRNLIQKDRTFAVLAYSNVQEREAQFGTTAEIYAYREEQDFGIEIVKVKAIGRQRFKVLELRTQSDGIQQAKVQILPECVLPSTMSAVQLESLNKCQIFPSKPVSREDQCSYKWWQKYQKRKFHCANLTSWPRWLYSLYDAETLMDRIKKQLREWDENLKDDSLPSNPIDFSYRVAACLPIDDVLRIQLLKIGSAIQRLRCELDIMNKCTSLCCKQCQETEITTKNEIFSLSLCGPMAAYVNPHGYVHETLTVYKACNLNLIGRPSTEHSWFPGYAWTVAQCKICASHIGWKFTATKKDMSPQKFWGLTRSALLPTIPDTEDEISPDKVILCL
Sequence of Protein cereblon/Cyclin-dependent kinase 9 (P50750 whole entry): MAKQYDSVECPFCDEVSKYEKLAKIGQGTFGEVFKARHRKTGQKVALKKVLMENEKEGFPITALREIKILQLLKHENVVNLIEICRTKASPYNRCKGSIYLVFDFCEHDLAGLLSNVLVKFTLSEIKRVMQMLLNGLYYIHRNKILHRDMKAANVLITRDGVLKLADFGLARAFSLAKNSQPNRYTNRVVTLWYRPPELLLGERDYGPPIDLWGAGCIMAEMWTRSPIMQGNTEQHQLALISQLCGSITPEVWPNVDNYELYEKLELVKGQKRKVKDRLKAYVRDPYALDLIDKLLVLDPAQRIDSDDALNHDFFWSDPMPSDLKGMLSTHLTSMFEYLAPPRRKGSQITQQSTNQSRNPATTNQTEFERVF
Sequence of Protein cereblon/Cyclin-dependent kinase 9 (Q96SW2 whole entry): as the sequence (Q96SW2 whole entry) above
Sequence of Cyclin-dependent kinase 5 (Q00535 whole entry): as the sequence (Q00535 whole entry) above
Sequence of Cyclin-dependent kinase 9 (P50750 whole entry): as the sequence (P50750 whole entry) above

What is called IC50 is the concentration at which inhibition is half-maximal. In general, Kd refers to the concentration at which binding is half-saturated. Take `O=C1CCC(N2C(=O)c3cccc(OCCCCCOc4ccc(CC(=O)Nc5cc(C6CCC6)n[nH]5)cc4)c3C2=O)C(=O)N1` (configuration not stated): the values for the IC50 in test [1] and in test [2] were 32 nM and 1080 nM, respectively. Moreover, the figures for the Kd in test [3] and in test [4] were 230 nM and 1060 nM, respectively.
Turning to `O=C(CCCOc1ccc(CC(=O)Nc2cc(C3CCC3)[nH]n2)cc1)NCCCCNc1cccc2c1C(=O)N(C1CCC(=O)NC1=O)C2=O` (configuration not stated), the IC50 in test [5] was found to be 155 nM; in test [1] it was 7 nM; in test [2], 530 nM.

For the origin of these results see ChEMBL document CHEMBL5360660, “Cyclin-Dependent Kinase Degradation via E3 Ligase Binding for Potential Disease Modulation in Cancer Treatment” (ACS Med Chem Lett, 2023).
